Reference: patent US8921426B2, “Cationic bis-urea compounds as effective antimicrobial agents” (International Business Machines Corporation, priority 2012, dated 2014)
In brackets after ≈: the same amount, converted by molar mass. Entries after “also recorded” stand apart in the source; their conditions may differ. Read-outs that look alike come from different tables or passages of the source.

Key:
[1] = system: primary human dermal fibroblasts; assay: MTT cytotoxicity assay; type: cell-based; details: 24 hours at 37° C.
Experimental: The cytotoxicity tests of the cationic bis-urea compounds were performed in primary human fibroblasts using MTT assay. The cells were cultured in DMEM supplemented with 10% FBS, 5% penicillin, 2 mM L-glutamine (Sigma) and incubated at 37° C., 5% CO2. The cells were seeded onto 96-well plates at a density of 10,000 cells per well and incubated for one day. Cationic compounds were diluted with the growth medium to give final concentrations of 31.25, 62.5, 125, 250.0, 500.0, 1000.0 and 2500.0 mg/L. The media were replaced with 100 microliters of the pre-prepared samples. The plates were then returned to the incubator and maintained in 5% CO2 at 37° C. for 24 hours. Fresh growth media (100 microliters) containing 10% MTT solution (5 mg/mL) were used to replace the mixture in each well after 24 hours. The plates were then returned to the incubator and maintained in 5% CO2 at 37° C. for a further 4 hours. The growth medium and excess MTT in each well were then removed. DMSO (150 microliters) was then added to each well to dissolve the internalized purple formazan crystals. An aliquot of 100 microliters was taken from each well and transferred to a fresh 96-well plate. Each sample was tested in eight replicates per plate. The plates were then assayed at 550 nm and 690 nm. The absorbance readings of the formazan crystals were taken to be the absorbance at 550 nm minus the absorbance at 690 nm. The results were expressed as a percentage of the absorbance of the blank control.

[2] = Zeta potential (Zetasizer); type: physicochemical; details: cationic bis-urea compounds, 1000 mg/L; method names PBS pH 7.4 and DI water, table does not say which
Experimental: The zeta potential of the cationic compounds in phosphate-buffered saline (PBS, pH 7.4) and deionized (DI) water was measured by Zetasizer 3000 HAS (Malvern Instrument Ltd., Malvern, UK) equipped with a He—Ne laser beam at […] (scattering angle: 90°). The concentration of cationic compounds was 1000 mg/L. Each measurement was repeated 5 times. An average value was obtained from the five measurements.

B. subtilis = assay: Killing efficiency, spread plate method, B. subtilis; type: cell-based, Bacillus subtilis; details: 18 hour treatment
Experimental: (§1) Antimicrobial activities of cationic compounds were also tested through a spread plate method. B. subtilis and C. albicans were treated at half MIC, MIC and 2×MIC concentrations of cationic compounds. At predetermined time (18 hours for B. subtilis and 24 hours for C. albicans and C. neoformans), microbial suspensions were withdrawn, diluted sequentially, and then plated on 1.5% lysogeny broth (LB) agar plates. The plates were incubated for 24 hours at 37° C. (48 hours at room temperature for C. albicans). Microbial colonies were formed and counted. The results are expressed as % kill=(cell count of control−survivor count of samples)/cell count of control×100. The experiments were performed in triplicate and were repeated three times.

rat red blood cells = assay: Hemolysis of rat red blood cells; type: cell-based; details: one hour at 37° C.
Experimental: Fresh rat blood cells were washed with PBS three times. 100 microliters of red blood cell suspension in PBS (4% in volume) was introduced to each well of a 96 well-plate and 100 microliters of cationic compound solution was then added to the well. PBS and TRITON X-100 (0.2%) were used as control. The plates were incubated for one hour at 37° C. The 96 well plates were centrifuged at 4000 rpm for 5 minutes. Aliquots (100 microliters) of the supernatant were transferred to a new 96 well plate. Hemoglobin release was measured at 576 nm using a microplate reader (TECAN). The red blood cells in PBS were used as a negative control. Absorbance of wells with red cells lysed with 0.2% TRITON X-100 was taken as 100% hemolysis. Percentage of hemolysis was calculated using the following formula (OD576nm=optical density at 576 nm): Hemolysis (%)=[(OD576nm of the sample−OD576nm of PBS)/(OD576nm of 0.2% TRITON X-100−OD576nm of PBS)×100. The data were expressed as mean and standard deviation of four replicates and the tests were repeated three times.

[3] = system: Bacillus subtilis (B. subtilis) (ATCC No. 23857); assay: MIC, broth microdilution, B. subtilis; type: cell-based; details: ATCC23857, TSB, 37° C., 18 hours
Experimental: (§2) The minimum inhibitory concentration (MIC) of each of the cationic compounds was measured using a broth microdilution method. The cationic compound were dissolved in DI water at a concentration of 2500 mg/L. The samples were further diluted to 31.25, 62.5, 125, 250.0, 500.0 and 1000.0 mg/L using TSB or YMB. The B. subtilis cells were grown in TSB overnight in an incubator at 37° C. The C. albicans cells were grown in YMB at room temperature. The optical density of the bacterial solution was adjusted to OD600 nm=0.07 to 0.08 by the addition of TSB or YMB. This bacterial solution was further diluted 1000 times. Cationic compound solution (100 microliters) was transferred to each well of 96 well plates (NUNC), followed by the addition of 100 microliters of the bacterial solution. TSB or YMB was used as control. B. subtilis cells were incubated at 37° C. overnight in TSB. C. albicans cells were cultured in YMB at room temperature. C. neoformans were inoculated in MHB broth and grew overnight at 37° C. with shaking at 250 rpm. The optical density readings of bacterial solutions were monitored by measuring OD600nm in predetermined times (0 hours and 18 hours for B. subtilis while 0 hours and 24 hours for C. albicans). The assay was performed in four replicates for each sample and the experiments were repeated at least three times.

C. albicans = assay: Killing efficiency, spread plate method, C. albicans; type: cell-based, Candida albicans; details: for killing of C. albicans cells: 24 hour treatment
Experimental: as §1

[4] = Critical micelle concentration (CMC) by intensity of scattered light; type: physicochemical; details: cationic bis-urea compounds; stock diluted using DI water
Experimental: The intensity of scattered light (in kilo counts per second) was recorded as a function of cationic compounds concentration ranging from 0.0 to 250.0 mg/L. A stock polymer solution was prepared with a concentration of 1000.0 mg/L, and diluted using DI water to various concentrations. The intensity of scattered light was plotted against polymer concentration. The CMC value was taken from the intersection of the tangent to the curve at the inflection with the horizontal tangent through the points at low concentrations.

[5] = system: Candida albicans (C. albicans) (ATCC No. 10231); assay: MIC, broth microdilution, C. albicans; type: cell-based; details: for MIC: Candida albicans, read-out: MIC C. albicans
Experimental: as §2

[6] = system: Cryptococcus neoformans (C. neoformans); assay: MIC, broth microdilution, C. neoformans; type: cell-based; details: for MIC: Cryptococcus neoformans, read-out: MIC C. neoformans
Experimental: as §2

C. neoformans cells = assay: TEM of C. neoformans cells before and after treatment; type: cell-based, Cryptococcus neoformans; details: 8 hours, FIG. 7B
Experimental: The morphology of the C. neoformans before and after treatment with cationic compound CBU2 was observed under a JEM-1230 TEM (JEOL, Japan) using an acceleration voltage of 80 keV. The C. neoformans (1.5 mL) was incubated with 0.5 mL of CBU2 solution for 8 hours. The solution was then centrifuged at 4000 rpm for 10 minutes, and the supernatant removed. The […] was washed with PBS twice and then fixed in formalin solution containing 2.5% glutaraldehyde overnight. The sample was then washed by PBS three times (15 minutes each) and then post fixed with 1% OsO4 in phosphate buffer (pH 7.0) for one hour. The fixed samples were washed in phosphate buffer three times (15 minutes each), followed by dehydration in a graded ethanol series. The samples were incubated with the mixtures of acetone and Spun resin (1:1 in volume) for one hour at room temperature, and then transferred to 1:3 mixture of acetone and Spun resin for 3 hours, and to Spun resin overnight. Ultrathin sections (70-90 nm) were cut using a Reichert-Jung Ultracut E ultramicrotome, and post-stained with uranyl acetate and lead citrate for 15 minutes each prior to TEM observations. Spun resin can be prepared from a kit by combining 3,4 epoxy cyclohexyl methyl 3,4 epoxy cyclohexyl carboxylate (ERL-4221 resin from Polysciences) (10.0 g), nonenylsuccinic anhydride (26.0 g), and dimethylaminoethanol (0.4 g).

[7] = ATCC10231, YMB, room temperature, 24 hours
[8] = 24 hours, 1.0 and 2.0 times the MIC (FIG. 4A)
[9] = up to a concentration of 1000 mg/L

MIC [3] | MIC [5, 7] | MIC ([6]; MHB broth, 37° C.) | Compound | cell viability of primary human fibroblasts ([1]; up to a concentration of 250 mg/L) | Zeta Potential [2] | killing of B. subtilis cells (B. subtilis; about 500 mg/L) | HC50 (concentration that induces 50% hemolysis of rat red blood cells) (rat red blood cells) | killing of C. albicans cells (C. albicans; about 500 mg/L) | CMC [4] | killing of B. subtilis cells (B. subtilis; about 125 mg/L) | activity against C. neoformans (in words) [6] | cell membrane morphology after treatment (TEM) (C. neoformans cells) | killing efficiency against C. albicans (C. albicans; 31.2 mg/L, by 1 hour of incubation (FIG. 5)) | killing efficiency against C. albicans (C. albicans; [8]) | killing of C. albicans cells (C. albicans; about 31.2 mg/L) | activity against C. albicans (in words) [5] | cell viability of primary human fibroblasts [1, 9] | killing of C. albicans cells (C. albicans; about 125 mg/L) | MIC [6] | MIC ([5]; ATCC10231, 24 h)
500 mg/L | 500 mg/L |  | C[N+](C)(C)CCCNC(=O)Nc1ccc(CNC(=O)c2ccc(C(=O)NCc3ccc(NC(=O)NCCC[N+](C)(C)C)cc3)cc2)cc1.[I-].[I-] [CBU1] | About 60% | 47.0 mV | 100% | >>2500 mg/L | 99% | 170.0 mg/L |  |  |  |  |  |  |  |  |  |  | 
125 mg/L (≈ 207 µM) | 31.2 mg/L (≈ 51.8 µM) | 62.5 mg/L (≈ 104 µM) | NCCCCNC(=O)Nc1ccc(CNC(=O)c2ccc(C(=O)NCc3ccc(NC(=O)NCCCCN)cc3)cc2)cc1 [CBU2] |  | 36.7 mV |  | >>1000 mg/L |  | 20.0 mg/L | 100% | highly active | ruptured and show loss of intracellular material | 100% | 100% | 100% | highly active; also recorded: more active |  |  |  | 
125 mg/L | 250 mg/L |  | C[N+](C)(C)CCCNC(=O)Nc1ccc(NC(=O)c2ccc(C(=O)Nc3ccc(NC(=O)NCCC[N+](C)(C)C)cc3)cc2)cc1.[I-].[I-] [CBU3] |  | 32.8 mV |  | >>2500 mg/L |  | 110.0 mg/L |  |  |  |  | 100% |  |  | More than 80% | 99.9% |  | 

More lines, now with the values behind:

Compound | MIC [3] | MIC [5, 7] | MIC ([6]; MHB broth, 37° C.) | cell viability of primary human fibroblasts ([1]; up to a concentration of 250 mg/L) | Zeta Potential [2] | killing of B. subtilis cells (B. subtilis; about 500 mg/L) | HC50 (concentration that induces 50% hemolysis of rat red blood cells) (rat red blood cells) | killing of C. albicans cells (C. albicans; about 500 mg/L) | CMC [4] | killing of B. subtilis cells (B. subtilis; about 125 mg/L) | activity against C. neoformans (in words) [6] | cell membrane morphology after treatment (TEM) (C. neoformans cells) | killing efficiency against C. albicans (C. albicans; 31.2 mg/L, by 1 hour of incubation (FIG. 5)) | killing efficiency against C. albicans (C. albicans; [8]) | killing of C. albicans cells (C. albicans; about 31.2 mg/L) | activity against C. albicans (in words) [5] | cell viability of primary human fibroblasts [1, 9] | killing of C. albicans cells (C. albicans; about 125 mg/L) | MIC [6] | MIC ([5]; ATCC10231, 24 h)
NCCNC(=O)Nc1ccc(CNC(=O)c2ccc(C(=O)NCc3ccc(NC(=O)NCCN)cc3)cc2)cc1 [CBU5] |  |  |  |  | 32.2 mV |  | >>1000 mg/L |  | 100.00 mg/L |  | highly active |  |  |  |  | highly active; also recorded: more active | About 80% |  | 125 mg/L (≈ 229 µM) | 62.5 mg/L (≈ 114 µM)
NCCCCCCNC(=O)Nc1ccc(CNC(=O)c2ccc(C(=O)NCc3ccc(NC(=O)NCCCCCCN)cc3)cc2)cc1 [CBU6] |  |  |  |  | 35.3 mV |  | >>1000 mg/L |  | 15.0 mg/L |  | highly active |  |  |  |  | highly active; also recorded: more active | About 80% |  | 62.5 mg/L (≈ 94.9 µM) | 31.2 mg/L (≈ 47.4 µM)
NCc1ccc(CNC(=O)Nc2ccc(CNC(=O)c3ccc(C(=O)NCc4ccc(NC(=O)NCc5ccc(CN)cc5)cc4)cc3)cc2)cc1 [CBU7] |  |  |  |  | 45.1 mV |  | >>1000 mg/L |  | 12.0 mg/L |  | highly active |  |  |  |  | highly active; also recorded: more active |  |  | 31.2 mg/L (≈ 44.6 µM) | 31.2 mg/L (≈ 44.6 µM)
